For 17 compounds, Ki results are on record in patent publication US8367695B2, “Condensed tetrahydroquinoline derivative and use thereof for medical purposes” (Mitsubishi Tanabe Pharma Corporation, priority 2007, dated 2013).

The test concerns the target T1, human recombinant mineralocorticoid receptor (MR) (Homo sapiens, UniProt P08235).
T1 construct: made in house; host or cells: insect cell Sf9 (baculovirus)
T1 sequence (P08235 1-984): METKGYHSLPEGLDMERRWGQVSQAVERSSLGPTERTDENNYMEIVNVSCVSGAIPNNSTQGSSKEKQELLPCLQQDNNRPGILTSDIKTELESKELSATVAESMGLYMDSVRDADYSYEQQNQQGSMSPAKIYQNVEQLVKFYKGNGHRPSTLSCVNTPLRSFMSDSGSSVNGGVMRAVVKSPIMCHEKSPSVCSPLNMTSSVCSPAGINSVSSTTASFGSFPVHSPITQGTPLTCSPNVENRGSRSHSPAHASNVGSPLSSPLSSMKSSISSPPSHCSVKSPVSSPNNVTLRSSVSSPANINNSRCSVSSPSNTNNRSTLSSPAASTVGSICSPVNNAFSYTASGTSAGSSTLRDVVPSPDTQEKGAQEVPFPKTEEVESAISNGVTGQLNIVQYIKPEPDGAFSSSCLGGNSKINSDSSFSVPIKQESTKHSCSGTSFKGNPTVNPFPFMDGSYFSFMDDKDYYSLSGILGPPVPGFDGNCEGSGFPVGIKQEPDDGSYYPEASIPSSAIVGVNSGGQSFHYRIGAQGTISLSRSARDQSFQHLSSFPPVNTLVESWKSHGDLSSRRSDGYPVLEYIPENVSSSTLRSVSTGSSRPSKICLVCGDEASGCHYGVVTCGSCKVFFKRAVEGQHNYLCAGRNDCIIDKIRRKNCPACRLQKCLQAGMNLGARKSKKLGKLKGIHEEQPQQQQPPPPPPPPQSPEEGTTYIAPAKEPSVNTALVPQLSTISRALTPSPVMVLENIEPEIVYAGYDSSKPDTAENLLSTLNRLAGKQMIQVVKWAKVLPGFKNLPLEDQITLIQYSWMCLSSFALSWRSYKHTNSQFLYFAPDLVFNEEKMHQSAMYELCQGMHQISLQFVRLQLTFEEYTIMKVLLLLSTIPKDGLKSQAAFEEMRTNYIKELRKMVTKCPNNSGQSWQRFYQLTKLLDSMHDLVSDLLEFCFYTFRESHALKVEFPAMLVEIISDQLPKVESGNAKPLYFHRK
Kind of test: Radioactive ligand binding test, MR cytosol, [3H]-Ald. From the text: Radioactive Ligand Binding Test Using Cytosols of Human Glucocorticoids Receptor, Progesterone Receptor and Mineralocorticoid Receptor
The procedures described in Neuroimmunomodulation (1994, 1, p. 66-73) and Invest. Opthalmol. Vis. Sci. (1996, 37, p. 805-813) were modified and used. In brief, cytosol preparations of human recombinant glucocorticoids receptor (GR) and human recombinant progesterone receptor-B (PRB) were purchased from Invitrogen (Carlsbad, Calif.), and a cytosol preparation of human recombinant mineralocorticoid receptor (MR) was prepared by our company (Yokohama, JP). MR cDNA was cloned into a baculovirus expression vector and expressed in insect cell Sf9. The procedures described in J. Biol. Chem. (1991, 266, p. 18072-18081), Proc. Natl. Acad. Sci. USA (1991, 88, p. 10681-10685) and Bac-to-Bac (registered trade mark) Baculovirus Expression Systems technical manual (Invitrogen) were partly modified and used as the procedures for MR gene cloning up to preparation of recombinant receptor cytosol. [^3H]-Dexamethasone (Dex, specific activity 91.0 Ci/mmol) was purchased from GE Healthcare (Buckinghamshire, UK), and [^3H]-progesterone (Prog, specific activity 103 Ci/mmol) and [3H]-aldosterone (Ald, specific activity 87.9 Ci/mmol) were each purchased from PerkinElmer (Boston, Mass.). Polypropylene round-bottomed 96 well plate was obtained from ABgene (Epsom, UK). Dimethyl Sulfoxide (DMSO) and hydrochloric acid were obtained from Kanto Chemical (TOKYO, JP). Trizma Base (Tris), Bovine Serum Albumin (BSA) and Sodium tungstate dihydrate were obtained from Sigma Chemicals (St. Louis, Mo.). Dithiothreitol (DTT) and Dextran 70 were obtained from GE Healthcare (Buckinghamshire, UK). Glycerol was obtained from Junsei Chemical (TOKYO, JP). Norit® “SX-II” was obtained from Wako Pure Chemical Industries, Ltd. (Osaka, JP). MeltiLex™, A, Printed Filtermat A and Sample Bag were obtained from PerkinElmer (Boston, Mass.).
As a buffer for GR binding assay, 25 mM Tris-HCl (4° C., pH 7.4)/1 mM EDTA·2Na/1 mM DTT/0.1% BSA was prepared and used. As buffers for PRB and MR binding assay, 10 mM Tris-HCl (4° C., pH 7.4)/1 mM DTT/0.1% BSA/10% glycerol and 20 mM Tris-HCl (4° C., pH 7.4)/1 mM EDTA·2Na/10% glycerol/20 mM sodium tungstate were respectively prepared and used. As dextran-coated charcoal (DCC) for B/F separation, 0.75% Dextran 70/0.75% Norit® SX-II/10 mM Tris-HCl (4° C., pH 7.4) was prepared and used.
Compound storage solutions (5-20 mM) were prepared using DMSO. The storage solutions were diluted with DMSO to 0.1 mM (for GR) and 0.3 mM (for PRB and MR), and further diluted 20-fold with distilled water to give solutions. Then, the preparations were diluted to each concentration with 5% DMSO solution. 1% DMSO was present at the time of the binding assay.
In the case of MR binding assay, [^3H]-Ald (about 4 nM), MR cytosol (about 1 mg/mL concentration of total protein), a test compound and a binding buffer were mixed in a total volume of 50 μL, and the mixture was stood at 4° C. for 30 min or longer. A specific binding was defined to be the difference in the [^3H]-Ald binding between the presence and the absence of 1 μM unlabeled Ald.
After the reaction, 50 μL of DCC was added to each well and blended. Thereafter, the mixture was stood at 4° C. for 10 min. The plate was applied to high-speed cooling centrifuge under the conditions of 4° C., 2000 rpm, 5 min to perform B/F separation. A given amount of the supernatant was recovered, which was spotted on Filtermat A of 96 well format (PerkinElmer) and rapidly dried at a high temperature. Then, solid scintillator MeltiLex A (PerkinElmer) was melted on Filtermat A. The mixture was placed in a Sample Bag (PerkinElmer), and the level of radioactivity was measured by plate reader 1450 Micro Beta TRILUX (PerkinElmer).
Measurement of Inhibition Constant (Ki)

Read-outs that look alike come from different tables or passages of the source.

`Cc1noc(C)c1-c1cc2c(c3c1CCC3)NC(C)(C)C(=O)C2(C)C` [Example 2, 6-(3,5-dimethylisoxazol-4-yl)-2,2,4,4-tetramethyl-2,3,4,7,8,9-hexahydro-1H-cyclopenta[h]quinolin-3-one]: the Ki is more than 1000 nM.
Same read-out and setting: under `CC1(C)Nc2c(cc(-c3ccnc4cc[nH]c34)c3c2CCC3)C(C)(C)C1=O` [Example 13, 2,2,4,4-tetramethyl-6-(1H-pyrrolo[3,2-b]pyridin-7-yl)-2,3,4,7,8,9-hexahydro-1H-cyclopenta[h]quinolin-3-one] stands more than 1000 nM; under `CC1(C)Nc2c(cc(-c3cccc4nccn34)c3c2CCC3)C(C)(C)C1=O` [Example 14, 6-(imidazo[1,2-a]pyridin-5-yl)-2,2,4,4-tetramethyl-2,3,4,7,8,9-hexahydro-1H-cyclopenta[h]quinolin-3-one], more than 1000 nM; under `CC1(C)Nc2c(cc(-c3cccc4nncn34)c3c2CCC3)C(C)(C)C1=O` [Example 17, 2,2,4,4-tetramethyl-6-([1,2,4]triazolo[4,3-a]pyridin-5-yl)-2,3,4,7,8,9-hexahydro-1H-cyclopenta[h]quinolin-3-one], more than 1000 nM.
Same read-out and setting: under `CC1(C)Nc2c(cc(-c3cccc4ncccc34)c3c2CCC3)C(C)(C)C1=O` [Example 20, 2,2,4,4-tetramethyl-6-(quinolin-5-yl)-2,3,4,7,8,9-hexahydro-1H-cyclopenta[h]quinolin-3-one] stands more than 1000 nM; under `CC1(C)Nc2c(cc(-c3ccnc4ncccc34)c3c2CCC3)C(C)(C)C1=O` [Example 21, 2,2,4,4-tetramethyl-6-([1,8]naphthyridin-4-yl)-2,3,4,7,8,9-hexahydro-1H-cyclopenta[h]quinolin-3-one], more than 1000 nM.
On the same count and under the same terms, with `C=C1C(C)(C)Nc2c(cc(-c3c(C)ncn3C)c3c2CCC3)C1(C)C` [Example 29, 6-(3,5-dimethyl-3H-imidazol-4-yl)-2,2,4,4-tetramethyl-3-methylene-2,3,4,7,8,9-hexahydro-1H-cyclopenta[h]quinoline] the figure was more than 1000 nM; with `C=CCC1(C)C(=O)C(C)(C)Nc2c1cc(-c1ccc(O)cc1C)c1c2CCC1` (centres unmarked) [Example 50, 4-allyl-6-(4-hydroxy-2-methylphenyl)-2,2,4-trimethyl-2,3,4,7,8,9-hexahydro-1H-cyclopenta[h]quinolin-3-one], more than 1000 nM; with `C=CCC1(C)C(=O)C(C)(C)Nc2c1cc(-c1c(C)noc1C)c1c2CCC1` (centres unmarked) [Example 51, 4-allyl-6-(3,5-dimethylisoxazol-4-yl)-2,2,4-trimethyl-2,3,4,7,8,9-hexahydro-1H-cyclopenta[h]quinolin-3-one], more than 1000 nM.
In the case of `C=CCC1(C)C(=O)C(C)(C)Nc2c1cc(-c1cccc3nccn13)c1c2CCC1` (centres unmarked) [Example 57, 4-allyl-6-(imidazo[1,2-a]pyridin-5-yl)-2,2,4-trimethyl-2,3,4,7,8,9-hexahydro-1H-cyclopenta[h]quinolin-3-one], the Ki is more than 1000 nM.
For the compound `CCC1(C)C(=O)C(C)(C)Nc2c1cc(-c1cccc3nccn13)c1c2CCC1` (centres unmarked) [Example 58, 4-ethyl-6-(imidazo[1,2-s]pyridin-5-yl)-2,2,4-trimethyl-2,3,4,7,8,9-hexahydro-1H-cyclopenta[h]quinolin-3-one], for the setting “[3H]-Ald about 4 nM, MR cytosol (Sf9), 4° C., Cheng-Prusoff, Kd about 2.0 nM, read-out: MR (Ki: nM)”, the inhibitory constant (Ki) was more than 1000 nM.
Turning to `CC#CCC1(C)C(=O)C(C)(C)Nc2c1cc(-c1cccc3nccn13)c1c2CCC1` (centres unmarked) [Example 63, 4-(2-butynyl)-6-(imidazo[1,2-a]pyridin-5-yl)-2,2,4-trimethyl-2,3,4,7,8,9-hexahydro-1H-cyclopenta[h]quinolin-3-one], the Ki was more than 1000 nM.
Consider `Cc1noc(C)c1-c1cc2c(c3c1OCO3)NC(C)(C)C(=O)C2(C)C` [Example 69, 4-(3,5-dimethylisoxazol-4-yl)-6,6,8,8-tetramethyl-6,7,8,9-tetrahydro-[1,3]dioxolo[4,5-h]quinolin-7-one], for which the inhibition constant Ki is more than 1000 nM.
The same measure, in the same setting: under `CC1(C)Nc2c(cc(-c3cccc4nccn34)c3c2OCO3)C(C)(C)C1=O` [Example 71, 4-(imidazo[1,2-a]pyridin-5-yl)-6,6,8,8-tetramethyl-6,7,8,9-tetrahydro-[1,3]dioxolo[4,5-h]quinolin-7-one] stands more than 1000 nM.
On to `CC1(C)Nc2c(cc(-c3cccc4ncccc34)c3c2OCO3)C(C)(C)C1=O` [Example 72, 6,6,8,8-tetramethyl-4-(quinolin-5-yl)-6,7,8,9-tetrahydro-[1,3]dioxolo[4,5-h]quinolin-7-one], for which the inhibitory constant (Ki) was more than 1000 nM.
Same read-out and setting: with `C=CCC1(C)C(=O)C(C)(C)Nc2c1cc(-c1cccc3cc[nH]c13)c1c2OCO1` (centres unmarked) [Example 78, 6-allyl-4-(1H-indol-7-yl)-6,8,8-trimethyl-6,7,8,9-tetrahydro-[1,3]dioxolo[4,5-h]quinolin-7-one] the figure was more than 1000 nM.
Still for that read-out and setting: under `CC1(C)Nc2c(cc(-c3cccc4nccn34)c3c2OC(F)(F)O3)C(C)(C)C1=O` [Example 82, 2,2-difluoro-4-(imidazo[1,2-a]pyridin-5-yl)-6,6,8,8-tetramethyl-6,7,8,9-tetrahydro-[1,3]dioxolo[4,5-h]quinolin-7-one] stands more than 1000 nM.
